From US8178077B2, “Drug development target protein and target gene, and method of screening” (Reverse Proteomics Research Institute Co., Ltd., priority 2004, dated 2012)

Columns and labels:
[1] = target: T1, FLJ39196 clone-derived protein (human neurocalcin δ) (Homo sapiens, UniProt P61601); experiment: SEC/MS interaction analysis (size exclusion spin column and mass analysis) with FLJ39196 clone-derived protein; format: binding
T1 construct: A human full-length cDNA clone was expressed as a protein with an N-terminal His tag; His tag (N); made in house; host or cells: Escherichia coli BL21star(DE3)pLysS (pDEST17 Gateway expression plasmid)
How it was run: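 Unmodified, non-immobilized protein was mixed with compound and separated by size exclusion on 384-well Unifilter 100 spin columns packed with 10 μL Bio-Gel P6. The protein-fraction filtrate was collected in 50% acetonitrile, deproteinized, concentrated, redissolved in 10 μL of 50% methanol, and 2 μL was injected for ESI mass analysis of compound spectral intensity.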

[2] = target: T2, FLJ20589 clone-derived protein (human hippocalcin-like protein 1, VILIP-3) (Homo sapiens, UniProt P37235); experiment: SEC/MS interaction analysis (size exclusion spin column and mass analysis) with FLJ20589 clone-derived protein; format: binding
T2 construct: A human full-length cDNA clone was expressed as a protein with an N-terminal His tag; His tag (N); made in house; host or cells: Escherichia coli BL21star(DE3)pLysS (pDEST17 Gateway expression plasmid)

[3] = protein 0 μM (protein-free reference), compound 1 μM
[4] = protein 0 μM (protein-free reference), compound 10 μM
[5] = protein 0 μM (protein-free reference), compound 100 μM
[6] = protein 0 μM (protein-free reference), compound 250 μM
[7] = protein 23.75 μM, compound 1 μM
[8] = protein 23.75 μM, compound 10 μM
[9] = protein 23.75 μM, compound 100 μM
[10] = protein 23.75 μM, compound 250 μM
[11] = protein 47.5 μM, compound 10 μM
[12] = protein 47.5 μM, compound 100 μM
[13] = protein 47.5 μM, compound 250 μM

Row | SMILES | spectral intensity of the compound in the SEC spin column filtrate (protein fraction) [1, 3] | spectral intensity of the compound in the SEC spin column filtrate (protein fraction) [1, 4] | spectral intensity of the compound in the SEC spin column filtrate (protein fraction) [1, 5] | spectral intensity of the compound in the SEC spin column filtrate (protein fraction) [1, 6] | spectral intensity of the compound in the SEC spin column filtrate (protein fraction) [1, 7] | spectral intensity of the compound in the SEC spin column filtrate (protein fraction) [1, 8] | spectral intensity of the compound in the SEC spin column filtrate (protein fraction) [1, 9] | spectral intensity of the compound in the SEC spin column filtrate (protein fraction) [1, 10] | spectral intensity of the compound in the SEC spin column filtrate (protein fraction) ([1]; protein 47.5 μM, compound 1 μM) | spectral intensity of the compound in the SEC spin column filtrate (protein fraction) [1, 11] | spectral intensity of the compound in the SEC spin column filtrate (protein fraction) [1, 12] | spectral intensity of the compound in the SEC spin column filtrate (protein fraction) [1, 13] | spectral intensity of the compound in the SEC spin column filtrate (protein fraction) [2, 3] | spectral intensity of the compound in the SEC spin column filtrate (protein fraction) [2, 4] | spectral intensity of the compound in the SEC spin column filtrate (protein fraction) [2, 5] | spectral intensity of the compound in the SEC spin column filtrate (protein fraction) [2, 6] | spectral intensity of the compound in the SEC spin column filtrate (protein fraction) [2, 7] | spectral intensity of the compound in the SEC spin column filtrate (protein fraction) [2, 8] | spectral intensity of the compound in the SEC spin column filtrate (protein fraction) [2, 9] | spectral intensity of the compound in the SEC spin column filtrate (protein fraction) [2, 10] | other results
1 | CN1CCN(CCCN2c3ccccc3Sc3ccc(C(F)(F)F)cc32)CC1 [Trifluoperazine] | 6645734 | 7904072 | 204390563 | 632906281 | 7580781 | 40058178 | 293702761 | 1292987653 | 7231665 | 14142338 | 5846308 | 2293500744 | 1499445 | 1420853 | 2266965 | 4146130 | 469062 | 893634 | 41947038 | 57062370 | spectral intensity of the compound in the SEC spin column filtrate (protein fraction) ([2]; protein 47.5 μM, compound 1 μM): 459554; spectral intensity of the compound in the SEC spin column filtrate (protein fraction) [2, 11]: 2953415; spectral intensity of the compound in the SEC spin column filtrate (protein fraction) [2, 12]: 67433540; spectral intensity of the compound in the SEC spin column filtrate (protein fraction) [2, 13]: 116228047
2 | O=C1CN=C(c2ccccc2)c2cc(Cl)ccc2N1CC1CC1 [prazepam] | 45379226 | 21988256 | 130413200 | 139016191 | 38417587 | 46660512 | 258681345 | 517983224 | 26479402 | 67670753 | 264065408 | 706383483 | 563508 | 752185 | 5911478 | 8158416 | 372254 | 1912944 | 27662748 | 53037838 | spectral intensity of the compound in the SEC spin column filtrate (protein fraction) ([2]; protein 47.5 μM, compound 1 μM): 603084; spectral intensity of the compound in the SEC spin column filtrate (protein fraction) [2, 11]: 8279573; spectral intensity of the compound in the SEC spin column filtrate (protein fraction) [2, 12]: 67316791; spectral intensity of the compound in the SEC spin column filtrate (protein fraction) [2, 13]: 87274751
3 | c1ccc(-c2ccc(C(c3ccccc3)n3ccnc3)cc2)cc1 (stereo not drawn) [Bifonazole] | 32068857 | 34579053 | 30705006 | 32278650 | 27516354 | 30253800 | 60323012 | 85169446 | 33844567 | 38342358 | 152159135 | 322219706 | 2704636 | 2935358 | 2558136 | 3779926 | 2343078 | 2189489 | 3826699 | 3607174 | spectral intensity of the compound in the SEC spin column filtrate (protein fraction) ([2]; protein 47.5 μM, compound 1 μM): 1367901; spectral intensity of the compound in the SEC spin column filtrate (protein fraction) [2, 11]: 2513645; spectral intensity of the compound in the SEC spin column filtrate (protein fraction) [2, 12]: 8024232; spectral intensity of the compound in the SEC spin column filtrate (protein fraction) [2, 13]: 28949362
4 | Fc1ccc(C(c2ccc(F)cc2)N2CCN(C/C=C/c3ccccc3)CC2)cc1 [Flunarizine] | – | – | – | – | – | – | – | – | – | – | – | – | 188851 | 200579 | 198757 | 253795 | 501950 | 137693 | 181386 | 308575 | spectral intensity of the compound in the SEC spin column filtrate (protein fraction) ([2]; protein 47.5 μM, compound 1 μM): 58869; spectral intensity of the compound in the SEC spin column filtrate (protein fraction) [2, 11]: 178128; spectral intensity of the compound in the SEC spin column filtrate (protein fraction) [2, 12]: 2683794; spectral intensity of the compound in the SEC spin column filtrate (protein fraction) [2, 13]: 9317332
5 | CCc1oc2ccccc2c1C(=O)c1cc(Br)c(O)c(Br)c1 [Benzbromarone] | 231212 | 300847 | 378850 | 461737 | 357666 | 1258120 | 10722991 | 19795682 | 412022 | 1942184 | 29076230 | 43413619 | – | – | – | – | – | – | – | – | –
